Source: patent publication US7452870B2, “Drug-eluting stents coated with P2Y12 receptor antagonist compound” (Inspire Pharmaceuticals, Inc., priority 2000, dated 2008)
Structures can show the parent of a compound that is named as a salt.

Key:
[1] = tested on: whole blood platelet aggregation; assay: Ex-vivo whole blood platelet aggregation during and after continuous IV infusion in dogs; design: species or system beagle dogs
Procedure: (§1) Two weeks prior to the study, beagle dogs were implanted with jugular catheters and vascular access ports. Groups of four dogs (two of each sex) were fitted with jackets and connected to ambulatory infusion pumps for drug administration.
(§2) The day of the study, dogs were treated with a continuous infusion of different concentrations of test compound (usually between 0.1 and 1.5 mg/kg/h) for 90 minutes at a rate of 3 mL/kg/h. Approximately 30 minutes and 15 minutes prior to the start of infusion (predose samples), at different times during each infusion period (usually 10, 30, 60, and 90 minutes), and after the termination of the infusion (usually 5, 10, 20, 30, 40, 60, 120, and 240 minutes and 18, 20, 22, and 24 hours), blood was withdrawn from a cephalic vein catheter for the assessment of ex-vivo whole blood platelet aggregation assays and/or for bioanalytical determination of the plasma levels of the test compound. Platelet aggregation was estimated using the impedance mode of a CHRONOLOG® aggregometer as described in Example 24, and the plasma levels of the test compound were analyzed on an API 4000 LC/MS/MS system coupled with an Agilent 1100 series liquid chromatograph.

[2] = tested on: washed platelet (ADP-induced aggregation; P2Y12 receptor); assay: ADP-induced platelet aggregation, washed platelet preparation; assay type: cell-based; settings: Homo sapiens, inhibition of ADP-induced aggregation, washed platelets, average of at least two separate experiments
Procedure: Blood was collected from healthy volunteers into syringes containing ⅙ final blood volume of anti-coagulant ACD (65 mM citric acid, 85 mM sodium citrate, 110 mM dextrose) for washed platelet (WP) preparation or into a syringe containing a final concentration of 10 units/mL heparin or 300 μM PPACK for whole blood (WB) assays. The blood collected for whole blood assays was maintained at room temperature and immediately tested as described below. […] These centrifugations and washes were repeated twice following by resuspension in the media described above containing 0.25 U apyrase/mL. Platelet aggregation was measured using the optical mode of a CHRONOLOG® aggregometer (Havertown, Pa.). Five hundred μl of platelet suspension containing 1 mg/mL Fibrinogen were warmed to 37° C. and stirred at 1000 rpm. Indicated concentrations of ADP were added to the sample and aggregation was monitored for 8 minutes. […] For whole blood aggregation, blood was diluted 1:1 with saline and then aggregation was performed in the same manner as described above using the impedance mode of the aggregometer. The potency of agonists and inhibitors of platelet aggregation was calculated from both, the rate of aggregation and the maximal extent of aggregation obtained for each determination by fitting the data to a four-parameter logistic equation using the […]® software package (GraphPad Corp. San Diego, Calif.).
The ability of P2Y12 antagonists to inhibit platelet aggregation is presented in this application as the percent inhibition of the aggregation induced by a maximally effective concentration of ADP.
Data presented are from the average of at least two separate experiments.

P2Y2 = P2Y2 (Homo sapiens, UniProt P41231); assay: Calcium mobilization assay, P2Y2; assay type: cell-based; design: key: no response (NR); settings: activation of P2Y2 receptor;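 further: test compound added first then a maximal dose of the cognate agonist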
Sequence of P2Y2 (P41231 whole entry, species assumed): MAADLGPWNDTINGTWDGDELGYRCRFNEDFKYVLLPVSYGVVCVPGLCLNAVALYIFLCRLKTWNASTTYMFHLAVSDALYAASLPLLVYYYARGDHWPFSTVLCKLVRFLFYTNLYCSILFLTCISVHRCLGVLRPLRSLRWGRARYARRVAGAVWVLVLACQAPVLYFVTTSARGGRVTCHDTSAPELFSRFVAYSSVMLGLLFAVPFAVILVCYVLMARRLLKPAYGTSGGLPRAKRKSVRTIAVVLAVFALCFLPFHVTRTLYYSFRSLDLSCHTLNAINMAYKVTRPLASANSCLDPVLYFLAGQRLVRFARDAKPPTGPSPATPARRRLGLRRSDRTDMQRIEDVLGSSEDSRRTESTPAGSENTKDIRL

P2Y4 = P2Y4 (Homo sapiens, UniProt P51582); assay: Calcium mobilization assay, P2Y4; assay type: cell-based; design: key: no response (NR); settings: activation of P2Y4 receptor;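 further: test compound added first then a maximal dose of the cognate agonist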
Sequence of P2Y4 (P51582 whole entry, species assumed): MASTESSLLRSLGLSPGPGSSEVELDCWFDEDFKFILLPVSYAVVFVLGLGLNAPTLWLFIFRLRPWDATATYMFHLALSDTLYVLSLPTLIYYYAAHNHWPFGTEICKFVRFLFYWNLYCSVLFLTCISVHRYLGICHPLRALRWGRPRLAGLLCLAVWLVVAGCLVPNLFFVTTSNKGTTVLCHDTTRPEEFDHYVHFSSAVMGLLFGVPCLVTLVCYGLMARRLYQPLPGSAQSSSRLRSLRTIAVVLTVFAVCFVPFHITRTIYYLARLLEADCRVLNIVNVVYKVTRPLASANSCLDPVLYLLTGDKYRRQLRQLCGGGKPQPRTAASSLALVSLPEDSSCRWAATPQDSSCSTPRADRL

P2Y1 = P2Y1 (Homo sapiens, UniProt P47900); assay: Calcium mobilization assay, P2Y1; assay type: cell-based; design: key: no response (NR); settings: activation of P2Y1 receptor;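 further: test compound added first then a maximal dose of the cognate agonist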
Sequence of P2Y1 (P47900 whole entry, the tested form may be a part): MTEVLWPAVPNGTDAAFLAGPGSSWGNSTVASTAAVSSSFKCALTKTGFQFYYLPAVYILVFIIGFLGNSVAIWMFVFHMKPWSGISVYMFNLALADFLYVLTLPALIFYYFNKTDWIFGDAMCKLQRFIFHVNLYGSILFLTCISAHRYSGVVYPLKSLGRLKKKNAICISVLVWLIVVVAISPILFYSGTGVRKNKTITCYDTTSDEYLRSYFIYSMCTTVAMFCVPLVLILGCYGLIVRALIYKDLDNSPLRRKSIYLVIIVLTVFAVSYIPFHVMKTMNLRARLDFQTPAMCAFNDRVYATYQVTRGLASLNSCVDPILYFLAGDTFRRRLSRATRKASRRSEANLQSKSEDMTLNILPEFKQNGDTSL

[3] = Plasma levels of test compound during and after IV infusion in dogs (LC/MS/MS); assay type: in vivo; settings: both sexes, beagle, dog, after the end of infusion, one-compartment model analysis, FIG. 5B
Procedure: as §1, §2
The pharmacological effect of the administration of the test compound correlated closely with the plasma levels of the compound. […]

P2Y6 = P2Y6 (Homo sapiens, UniProt Q15077); assay: Calcium mobilization assay, P2Y6; assay type: cell-based; design: key: no response (NR); settings: activation of P2Y6 receptor;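 further: test compound added first then a maximal dose of the cognate agonist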
Sequence of P2Y6 (Q15077 whole entry, species assumed): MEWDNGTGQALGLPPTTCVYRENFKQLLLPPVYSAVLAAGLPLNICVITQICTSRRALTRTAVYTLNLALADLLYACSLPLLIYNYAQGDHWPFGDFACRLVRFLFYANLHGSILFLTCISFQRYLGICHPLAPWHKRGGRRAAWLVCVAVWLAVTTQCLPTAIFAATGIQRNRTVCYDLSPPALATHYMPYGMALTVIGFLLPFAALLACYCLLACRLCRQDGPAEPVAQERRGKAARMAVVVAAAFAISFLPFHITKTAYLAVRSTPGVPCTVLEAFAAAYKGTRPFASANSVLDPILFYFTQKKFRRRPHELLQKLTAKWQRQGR

[4] = tested on: platelet aggregation (platelet rich plasma); assay: Ex-vivo ADP-induced platelet aggregation after intravenous administration in mice
Procedure: In order to evaluate the effects of inhibition of platelet aggregation in-vivo by the compounds described in this invention, experimental protocols similar to those described by Leon et al. (Circulation 103:718-723, 2001) were performed.
Anesthetized mice were injected intravenously with either saline or with different doses of trans-2′,3′-cinnamyl acetal-6N-ethylurea adenosine 5′-monophosphate, bis sodium salt (Compound 41), usually between 1 and 100 μg/kg. Five minutes after the administration of the compound, 700 μL of blood were obtained from each animal. The blood of two animals was combined and immediately processed to obtain platelet rich plasma for the assessment of platelet aggregation stimulated by 1 and 5 μM ADP. Platelet aggregation was measured using optical aggregometry as described in Example 21.
A key characteristic of the compounds described in this invention is the reversible nature of the inhibition of platelet aggregation. The model system described in Example 28 was also used to study the kinetics of in-vivo inhibition of platelet aggregation with selected compounds. Briefly, a maximally effective concentration of test compound was administered intravenously, and blood samples were obtained before and at different times (usually 0, 1, 5, 15 and 30 minutes) after the administration of trans-2′,3′-cinnamyl acetal-6N-ethylurea adenosine 5′-monophosphate, bis sodium salt (Compound 41). Blood samples were processed immediately and aggregation induced by 1 μM and 5 μM ADP was estimated as described in Example 31.

[5] = tested on: systemic intravascular thromboembolism; assay: Thromboembolism-induced mortality (collagen and epinephrine) in mice; assay type: in vivo; settings: 25 mg/kg single IV bolus five minutes before 0.3 mg/kg collagen and 60 μg/kg epinephrine
Procedure: Ten anesthetized mice were treated with vehicle (control) or with a single bolus intravenous administration of test compound (usually between 10 and 25 mg/kg). Five minutes after treatment, the animals were injected with a mixture of 0.3 mg/kg collagen and 60 μg/kg epinephrine. The survival time after the administration of collagen and epinephrine in animals pretreated with saline or 25 mg/kg of the test compound 2′3′-(trans)cinnamyl acetal-6-N-ethylurea AMP (compound 41), are shown using the Kaplan-Meier plot in FIG. 3. Ninety percent of the vehicle-pretreated animals died within 6 minutes after the IV injection of collagen and epinephrine.

[6] = tested on: platelets (ADP-induced aggregation); assay: Inhibition of ADP-induced platelet aggregation at 100 μM (FIG. 1); assay type: cell-based, human; settings: 100 μM compound
Procedure: Blood was collected from healthy volunteers into syringes containing ⅙ final blood volume of anti-coagulant ACD (65 mM citric acid, 85 mM sodium citrate, 110 mM dextrose) for washed platelet (WP) preparation or into a syringe containing a final concentration of 10 units/mL heparin or 300 μM PPACK for whole blood (WB) assays. The blood collected for whole blood assays was maintained at room temperature and immediately tested as described below. The blood collected for WP was centrifuged at 180 g for 15 minutes and the supernatant (platelet rich plasma) was removed. The platelet rich plasma was centrifuged and the platelets were pelleted and resuspended in a buffer consisting of (mM): NaCl (137), KCl (2.7), CaCl2 (2) MgCl2 (1), NaH2PO4 (3), Glucose (5), HEPES (10), pH 7.4, 0.2% BSA. These centrifugations and washes were repeated twice following by resuspension in the media described above containing 0.25 U apyrase/mL. Platelet aggregation was measured using the optical mode of a CHRONOLOG® aggregometer (Havertown, Pa.). Five hundred μl of platelet suspension containing 1 mg/mL Fibrinogen were warmed to 37° C. and stirred at 1000 rpm. Indicated concentrations of ADP were added to the sample and aggregation was monitored for 8 minutes. The effect of the compounds described in this invention were studied following the same protocol with the exception that the inhibitor was incubated for 2-5 minutes prior to the addition of a maximally effective concentration of ADP. For whole blood aggregation, blood was diluted 1:1 with saline and then aggregation was performed in the same manner as described above using the impedance mode of the aggregometer. The potency of agonists and inhibitors of platelet aggregation was calculated from both, the rate of aggregation and the maximal extent of aggregation obtained for each determination by fitting the data to a four-parameter logistic equation using the […]® software package (GraphPad Corp. San Diego, Calif.).
The ability of P2Y12 antagonists to inhibit platelet aggregation is presented in this application as the percent inhibition of the aggregation induced by a maximally effective concentration of ADP. When a broad range of concentrations of P2Y12 antagonist was tested (usually from 1 nM to 100 μM), an IC50 value was also obtained.
Different compounds were tested for their inhibition of ADP-induced aggregation and their IC50 according to the protocols in Example 19; the results are shown in FIG. 1. The bar graphs in the figure illustrate the effect of 100 μM concentration of the compound on ADP-induced platelet aggregation, and the data are expressed as % inhibition of the ADP response.
Where hydrogens are understood to be present, they have been omitted for the sake of simplicity. […]

## CCNC(=O)Nc1ncnc2c1ncn2[C@@H]1O[C@H](COP(=O)(O)O)C2O[C@H](/C=C/c3ccccc3)OC21 (stereo in doubt) [Compound 41, Phosphoric acid mono-{6-[6-(3-ethyl-ureido)-purin-9-yl]-2-styryl-tetrahydro-furo[3,4-d][1,3]dioxol-4-ylmethyl} ester bis sodium salt]
[1]; after end of IV infusion, FIG. 5A
  restoration of platelet aggregation following termination of infusion: nearly complete restoration of platelet aggregation within an hour
[1]; continuous IV infusion, FIG. 5A (0.3 mg/kg/h)
  time at which the pharmacodynamic effect reached steady state: ≤ 30 min
[1]; continuous intravenous infusion
  infusion rate giving the maximal inhibitory effect on platelet aggregation: 0.3 mg/kg/h
[1]; continuous intravenous infusion for 90 minutes
  inhibition of platelet aggregation, dose dependence: dose-dependent inhibition
[2]
  IC50: 13 ± 2 nM
P2Y2
  Calcium Mobilization P2Y2: NR
P2Y4
  Calcium Mobilization P2Y4: NR
P2Y1
  Calcium Mobilization P2Y1: NR
[3]
  half-life: ~7 min
P2Y6
  Calcium Mobilization P2Y6: NR
[4]; intravenous maximally effective concentration, 1 μM and 5 μM ADP, 5 minutes
  inhibition of ADP-induced platelet aggregation five minutes after administration: Complete inhibition
[4]; intravenous maximally effective concentration, 1 μM and 5 μM ADP, 30 minutes
  aggregation response to ADP by 30 minutes after administration: returned to values similar to those observed in control animals
[4]; intravenous, blood taken five minutes after administration, 1 and 5 μM ADP
  inhibition of platelet aggregation, dose dependence: dose-dependent inhibition
[5]
  mortality resulting from systemic intravascular thromboembolism: 20%

## Nc1ccn([C@@H]2O[C@H](COP(=O)(O)OP(=O)(O)OP(=O)(O)OP(=O)(O)OC[C@H]3O[C@@H](n4ccc(=O)[nH]c4=O)[C@H](O)[C@@H]3O)[C@@H](O)[C@H]2O)c(=O)n1 [Cp4U, P^1-(cytidine 5′-)-P^4-(uridine 5′-) tetraphosphate]
[6]
  inhibition of ADP-induced aggregation: do not inhibit

## O=c1ccn([C@@H]2O[C@H](COP(=O)(O)OP(=O)(O)OP(=O)(O)OP(=O)(O)OC[C@H]3O[C@@H](n4cnc5c(=O)[nH]cnc54)[C@H](O)[C@@H]3O)[C@@H](O)[C@H]2O)c(=O)[nH]1 [Ip4U]
[6]
  inhibition of ADP-induced aggregation: do not inhibit

## O=c1ccn([C@@H]2O[C@H](COP(=O)(O)OP(=O)(O)OP(=O)(O)OC[C@@H]3O[C@@H](n4ccc(=O)[nH]c4=O)C(O)[C@@H]3O)[C@H](O)C2O)c(=O)[nH]1 (stereo partly drawn) [Up3U, P^1,P^3-Di(uridine 5′-) triphosphate]
[6]
  inhibition of ADP-induced aggregation: do not inhibit

## O=c1ccn([C@@H]2O[C@H](COP(=O)(O)OP(=O)(O)OP(=O)(O)OP(=O)(O)OC[C@H]3O[C@@H](n4ccc(=O)[nH]c4=O)[C@H](O)[C@@H]3O)[C@@H](O)[C@H]2O)c(=O)[nH]1 [Up4U]
[6]
  inhibition of ADP-induced aggregation: do not inhibit
